In assay [1] the test system is Plasmodium falciparum. In words: Antiplasmodial activity against chloroquine-resistant Plasmodium falciparum K1 infected in erythrocytes assessed as [3H]hypoxanthine incorporation in presence of piperaquine. Type of assay: functional.
Assay [2] concerns Plasmodium falciparum. In words: microbe, parasite or virus in culture. The following applies: D10, 3 h.
Assay [3] has as its system Plasmodium falciparum. In words: microbe, parasite or virus in culture. The following applies: C3, 3 h.
For assay [4], the system named is Plasmodium falciparum. In words: microbe, parasite or virus in culture. The settings on record: D10, 3 h. This is another data set of the same source.
The test system of assay [5] is Plasmodium falciparum. In words: microbe, parasite or virus in culture. The settings on record: TM6, 3 h.
In assay [6] the test system is Plasmodium falciparum. In words: Antiplasmodial activity against chloroquine-resistant Plasmodium falciparum 7G8 infected in erythrocytes assessed as [3H]hypoxanthine incorporation in presence of piperaquine. Type of assay: functional.
Assay [7] has as its system Plasmodium falciparum. In words: microbe, parasite or virus in culture. The following applies: C6, 3 h.
Assay [8] deals with Plasmodium falciparum. In words: Antiplasmodial activity against chloroquine-sensitive Plasmodium falciparum 3D7 infected in erythrocytes assessed as [3H]hypoxanthine incorporation in presence of piperaquine. Type of assay: functional.
The test system of assay [9] is Plasmodium falciparum. In words: microbe, parasite or virus in culture. The following applies: C2, 3 h.
Assay [10] deals with Plasmodium falciparum. In words: Antiplasmodial activity against chloroquine-resistant Plasmodium falciparum C6harboring 7G8 pfcrt allele infected in erythrocytes assessed as [3H]hypoxanthine incorporation in presence of piperaquine. It is filed as functional, C6.
Assay [11] deals with Plasmodium falciparum. In words: Antiplasmodial activity against chloroquine-resistant Plasmodium falciparum TM6 infected in erythrocytes assessed as [3H]hypoxanthine incorporation in presence of piperaquine. It is filed as functional.
Assay [12] deals with Plasmodium falciparum. In words: microbe, parasite or virus in culture. The settings on record: 7G8, 3 h.
Assay [13] concerns Plasmodium falciparum. In words: Antiplasmodial activity against chloroquine-sensitive Plasmodium falciparum D10 harboring 7G8 pfcrt allele infected in erythrocytes assessed as [3H]hypoxanthine incorporation in presence of piperaquine. Type of assay: functional.
Assay [14] has as its system Plasmodium falciparum. In words: microbe, parasite or virus in culture. The settings on record: 3D7, 3 h.
The test system of assay [15] is Plasmodium falciparum. In words: Antiplasmodial activity against chloroquine-resistant Plasmodium falciparum 7G8 harboring D10 pfcrt allele infected in erythrocytes assessed as [3H]hypoxanthine incorporation in presence of piperaquine. Type of assay: functional.
Assay [16] has as its system Plasmodium falciparum. In words: microbe, parasite or virus in culture. The settings on record: 7G8, 3 h. This is another data set of the same source.
Assay [17] concerns Plasmodium falciparum. In words: Antiplasmodial activity against chloroquine-resistant Plasmodium falciparum 7G8 harboring parental pfcrt allele infected in erythrocytes assessed as [3H]hypoxanthine incorporation in presence of piperaquine. It is filed as functional.
The test system of assay [18] is Plasmodium falciparum. In words: microbe, parasite or virus in culture. The settings on record: 7G8, 3 h. The source holds these as a separate data set.
Assay [19] relates to Plasmodium falciparum. In words: microbe, parasite or virus in culture. The settings on record: K1, 3 h.
Assay [20] concerns Plasmodium falciparum. In words: Antiplasmodial activity against chloroquine-resistant Plasmodium falciparum 7G8 harboring parental pfcrt allele infected in erythrocytes assessed as [3H]hypoxanthine incorporation in presence of dihydroartimisinin. Type of assay: functional.
Assay [21] concerns Plasmodium falciparum. In words: Antiplasmodial activity against chloroquine-sensitive Plasmodium falciparum D10 harboring 7G8 pfcrt allele infected in erythrocytes assessed as [3H]hypoxanthine incorporation in presence of dihydroartimisinin. Type of assay: functional.
The test system of assay [22] is Plasmodium falciparum. In words: Antiplasmodial activity against chloroquine-resistant Plasmodium falciparum K1 infected in erythrocytes assessed as [3H]hypoxanthine incorporation in presence of dihydroartimisinin. Type of assay: functional.
The test system of assay [23] is Plasmodium falciparum. In words: Antiplasmodial activity against chloroquine-resistant Plasmodium falciparum 7G8 harboring D10 pfcrt allele infected in erythrocytes assessed as [3H]hypoxanthine incorporation in presence of dihydroartimisinin. Type of assay: functional.
The subject of assay [24] is Plasmodium falciparum. In words: Antiplasmodial activity against chloroquine-resistant Plasmodium falciparum C3 harboring Dd2 pfcrt allele infected in erythrocytes assessed as [3H]hypoxanthine incorporation in presence of dihydroartimisinin. It is filed as functional.
The test system of assay [25] is Plasmodium falciparum. In words: Antiplasmodial activity against chloroquine-resistant Plasmodium falciparum 7G8 infected in erythrocytes assessed as [3H]hypoxanthine incorporation in presence of dihydroartimisinin. It is filed as functional.
Assay [26] relates to Plasmodium falciparum. In words: Antiplasmodial activity against chloroquine-sensitive Plasmodium falciparum D10 infected in erythrocytes assessed as [3H]hypoxanthine incorporation in presence of dihydroartimisinin. It is filed as functional.
For assay [27], the system named is Plasmodium falciparum. In words: Antiplasmodial activity against chloroquine-sensitive Plasmodium falciparum 3D7 infected in erythrocytes assessed as [3H]hypoxanthine incorporation in presence of dihydroartimisinin. It is filed as functional.
Assay [28] deals with Plasmodium falciparum. In words: Antiplasmodial activity against chloroquine-sensitive Plasmodium falciparum C2 infected in erythrocytes assessed as [3H]hypoxanthine incorporation in presence of dihydroartimisinin. It is filed as functional.
Assay [29] relates to Plasmodium falciparum. In words: Antiplasmodial activity against chloroquine-resistant Plasmodium falciparum TM6 infected in erythrocytes assessed as [3H]hypoxanthine incorporation in presence of dihydroartimisinin. Type of assay: functional.
For assay [30], the system named is Plasmodium falciparum. In words: Antiplasmodial activity against chloroquine-resistant Plasmodium falciparum C6harboring 7G8 pfcrt allele infected in erythrocytes assessed as [3H]hypoxanthine incorporation in presence of dihydroartimisinin. It is filed as functional, C6.
The subject of assay [31] is Plasmodium falciparum. In words: Selectivity ratio of IC50 for chloroquine-resistant Plasmodium falciparum C3 harboring Dd2 pfcrt allele to IC50 for chloroquine-sensitive Plasmodium falciparum C2. Type of assay: functional.

This is an account of results in ChEMBL document CHEMBL1629673, “Role of known molecular markers of resistance in the antimalarial potency of piperaquine and dihydroartemisinin in vitro” (Antimicrob Agents Chemother, 2009).

Broadly, the IC50 is the concentration at which inhibition is half-maximal. Higher therefore signals weaker potency in that assay. Regarding `C[C@H]1[C@@H](O)O[C@@H]2O[C@@]3(C)CC[C@H]4[C@H](C)CC[C@@H]1[C@@]24OO3` [ARTENIMOL], the “fractional inhibitory concentration index (FICI)” value was 1.27 in the assay with Plasmodium falciparum [1]; 2.86 in the assay with Plasmodium falciparum [6]; 2.4 in the assay on Plasmodium falciparum [8]; 2.51 in the assay on Plasmodium falciparum [10]; 1.25 with Plasmodium falciparum [11]; 1.34 in the assay with Plasmodium falciparum [13]. Also, the “fractional inhibitory concentration index (FICI)” value with Plasmodium falciparum [15] was determined as 1.34; with Plasmodium falciparum [17], 0.8. The concentration for half-maximal inhibition (IC50) in the assay on Plasmodium falciparum [2] was found to be 0.7 nM; in the assay on Plasmodium falciparum [3] it was 1 nM; in the assay with Plasmodium falciparum [4], 0.7 nM; in the assay on Plasmodium falciparum [5], 1 nM; in the assay with Plasmodium falciparum [7], 0.3 nM; in the assay with Plasmodium falciparum [9] it was 0.8 nM. The IC50 in the assay with Plasmodium falciparum [12] was determined as 0.6 nM; in the assay on Plasmodium falciparum [14], 0.6 nM; in the assay with Plasmodium falciparum [16] it was 1.3 nM; with Plasmodium falciparum [18], 1.3 nM; with Plasmodium falciparum [19], 1 nM.

For `Clc1ccc2c(N3CCN(CCCN4CCN(c5ccnc6cc(Cl)ccc56)CC4)CC3)ccnc2c1` [PIPERAQUINE], the “fractional inhibitory concentration index (FICI)” value was determined as 0.8 in the assay with Plasmodium falciparum [20]; 1.34 in the assay on Plasmodium falciparum [21]; 1.27 in the assay with Plasmodium falciparum [22]; 1.34 in the assay on Plasmodium falciparum [23]; 1.7 in the assay on Plasmodium falciparum [24]; 2.86 in the assay with Plasmodium falciparum [25]. For the same compound, the “fractional inhibitory concentration index (FICI)” value with Plasmodium falciparum [26] worked out at 1.48; in the assay on Plasmodium falciparum [27], 2.4; in the assay on Plasmodium falciparum [28], 1.59; in the assay on Plasmodium falciparum [29], 1.25; in the assay on Plasmodium falciparum [30], 2.51. For the same compound, the 50% inhibitory concentration (IC50) came out at 11.5 nM in the assay on Plasmodium falciparum [3]; 8.1 nM in the assay with Plasmodium falciparum [4]; 15.8 nM in the assay with Plasmodium falciparum [5]; 6.6 nM in the assay on Plasmodium falciparum [7]; 3.9 nM in the assay on Plasmodium falciparum [9]; 9.1 nM with Plasmodium falciparum [12]. Besides, the IC50 in the assay on Plasmodium falciparum [14] is 3.4 nM; in the assay with Plasmodium falciparum [16], 11.2 nM; in the assay with Plasmodium falciparum [18], 12 nM; in the assay on Plasmodium falciparum [19], 13.4 nM. Besides, the “fold change (FC)” value in the assay on Plasmodium falciparum [31] was 3.
